In ChEMBL document CHEMBL1201862, “PubChem BioAssay data set” (2004):
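Five compound concentrations were applied to cells in 96-well plates for 48 hours; endpoints were derived by simple linear interpolation of the resulting dose-response curve. GI50: concentration for 50% inhibition of growth.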 Activity calls are given as the source filed them. Cut-off read from the data, not from the text of the source: active = GI50 up to about 1.1 µM and inactive = higher.

What was measured:
Assay in all cases: inhibition of tumour cell growth, NCI panel, 48 h
U-251 = system: U-251
A549 = system: A549
TK-10 = system: TK-10
BT-549 = system: BT-549
HCT-116 = system: HCT-116
MDA-MB-231 = system: MDA-MB-231
SF-268 = system: SF-268
MOLT-4 = system: MOLT-4
NCI-H522 = system: NCI-H522
UACC-62 = system: UACC-62
SF-539 = system: SF-539
SF-295 = system: SF-295
COLO 205 = system: COLO 205
PC-3 = system: PC-3
IGROV-1 = system: IGROV-1
SK-OV-3 = system: SK-OV-3
CCRF-CEM = system: CCRF-CEM
SK-MEL-2 = system: SK-MEL-2
A498 = system: A498
ACHN = system: ACHN

Measured: GI50

CC1(C)Oc2ccc3c(=O)c4ccccc4oc3c2C1C(=O)O (stereo unspecified)
inactive: U-251 > 100 µM | A549 > 100 µM | TK-10 > 100 µM | BT-549 > 100 µM | HCT-116 > 100 µM | MDA-MB-231 > 100 µM | SF-268 > 100 µM | MOLT-4 > 100 µM | NCI-H522 > 100 µM | UACC-62 > 100 µM | SF-539 > 100 µM | SF-295 > 100 µM | COLO 205 > 100 µM | PC-3 > 100 µM | IGROV-1 > 100 µM | SK-OV-3 > 100 µM | CCRF-CEM > 100 µM | SK-MEL-2 > 100 µM | A498 > 100 µM

C=C1C(=O)C([Si](C)(C)C)=C2C=C(C)C3(CC3)C12C (stereo unspecified)
inactive: U-251 28.2 µM | A549 24.2 µM | TK-10 67.1 µM | BT-549 25.4 µM | HCT-116 37.5 µM | ACHN 61.1 µM | MDA-MB-231 23 µM | SF-268 53.2 µM | MOLT-4 1.12 µM | NCI-H522 14 µM | UACC-62 14.7 µM | SF-295 30.4 µM | COLO 205 14.2 µM | PC-3 3.36 µM | IGROV-1 25.2 µM | CCRF-CEM 1.19 µM | SK-MEL-2 15.6 µM | A498 31 µM

CC(=O)O[C@H]1C[C@@H](OC(C)=O)[C@@](C)(O)[C@@H]2[C@@H](OC(C)=O)[C@@]3(O)[C@H](/C=C(/CCl)[C@H]4O[C@H]4[C@@H](OC(C)=O)[C@@]12C)OC(=O)[C@@H]3C
inactive: U-251 > 25 µM | A549 > 25 µM | TK-10 > 25 µM | BT-549 > 25 µM | HCT-116 > 25 µM | ACHN > 25 µM | MDA-MB-231 > 25 µM | SF-268 > 25 µM | MOLT-4 > 25 µM | NCI-H522 > 25 µM | UACC-62 > 25 µM | SF-295 17.7 µM | COLO 205 > 25 µM | PC-3 > 25 µM | IGROV-1 > 25 µM | SK-OV-3 > 25 µM | CCRF-CEM 18.5 µM | SK-MEL-2 > 25 µM | A498 > 25 µM

O=C1C=C(Nc2ccc(S(=O)(=O)Nc3nccs3)cc2)c2ccccc2C1=O
inactive: U-251 21.6 µM | A549 > 100 µM | TK-10 > 100 µM | BT-549 20.7 µM | HCT-116 34.5 µM | ACHN 21 µM | MDA-MB-231 26.5 µM | SF-268 27.1 µM | MOLT-4 11.8 µM | NCI-H522 38.5 µM | UACC-62 24.5 µM | SF-539 21.1 µM | SF-295 18 µM | PC-3 71.4 µM | IGROV-1 12.5 µM | SK-OV-3 > 100 µM | CCRF-CEM 15.2 µM | SK-MEL-2 28.6 µM | A498 71 µM

N#Cc1c(O)c(C=O)c(=O)n2c1[nH]c1ccccc12
inactive: U-251 > 100 µM | A549 > 100 µM | TK-10 > 100 µM | BT-549 > 100 µM | HCT-116 > 100 µM | ACHN > 100 µM | MDA-MB-231 > 100 µM | SF-268 > 100 µM | MOLT-4 > 100 µM | NCI-H522 > 100 µM | UACC-62 > 100 µM | SF-539 > 100 µM | SF-295 > 100 µM | COLO 205 > 100 µM | PC-3 > 100 µM | IGROV-1 > 100 µM | SK-OV-3 > 100 µM | CCRF-CEM > 100 µM | A498 > 100 µM

CCN(CC)C(=O)N[C@@H](Cc1ccccc1)C(=O)NC
inactive: U-251 > 100 µM | A549 > 100 µM | BT-549 > 100 µM | HCT-116 > 100 µM | ACHN > 100 µM | MDA-MB-231 > 100 µM | SF-268 > 100 µM | MOLT-4 > 100 µM | NCI-H522 > 100 µM | UACC-62 > 100 µM | SF-295 > 100 µM | COLO 205 > 100 µM | PC-3 > 100 µM | IGROV-1 > 100 µM | SK-OV-3 > 100 µM | CCRF-CEM > 100 µM | SK-MEL-2 > 100 µM | A498 > 100 µM

COC(=O)C1=C(O)c2ccc(Cl)cc2S(=O)(=O)N1C
inactive: U-251 81.3 µM | A549 44.4 µM | TK-10 > 100 µM | BT-549 > 100 µM | HCT-116 > 100 µM | ACHN > 100 µM | MDA-MB-231 > 100 µM | SF-268 64.7 µM | MOLT-4 > 100 µM | NCI-H522 34.8 µM | UACC-62 > 100 µM | SF-295 60.5 µM | COLO 205 > 100 µM | PC-3 83.4 µM | IGROV-1 78 µM | SK-OV-3 > 100 µM | CCRF-CEM 39.4 µM | SK-MEL-2 > 100 µM | A498 > 100 µM

N#CCCCCC12C3C(=O)N(c4ccccc4)C(=O)C3ON1O[C@@H]1C(=O)N(c3ccccc3)C(=O)[C@@H]12 (stereo partly specified)
inactive: U-251 > 100 µM | A549 > 100 µM | TK-10 > 100 µM | BT-549 > 100 µM | ACHN > 100 µM | MDA-MB-231 > 100 µM | SF-268 > 100 µM | MOLT-4 > 100 µM | NCI-H522 > 100 µM | UACC-62 > 100 µM | SF-539 > 100 µM | SF-295 > 100 µM | COLO 205 > 100 µM | PC-3 > 100 µM | IGROV-1 > 100 µM | SK-OV-3 > 100 µM | CCRF-CEM > 100 µM | A498 > 100 µM

CCOC(=O)/C(C(C)=O)=C(\OC(C)=O)c1ccncc1C(=O)O
inactive: U-251 > 100 µM | A549 > 100 µM | BT-549 > 100 µM | HCT-116 > 100 µM | ACHN > 100 µM | MDA-MB-231 > 100 µM | SF-268 > 100 µM | MOLT-4 > 100 µM | NCI-H522 > 100 µM | UACC-62 > 100 µM | SF-539 > 100 µM | SF-295 > 100 µM | COLO 205 > 100 µM | PC-3 > 100 µM | IGROV-1 > 100 µM | SK-OV-3 > 100 µM | CCRF-CEM > 100 µM | SK-MEL-2 > 100 µM | A498 > 100 µM

CC(CC(=O)O)(CC(=O)O)c1ccccc1
inactive: U-251 > 100 µM | A549 > 100 µM | TK-10 > 100 µM | BT-549 > 100 µM | HCT-116 > 100 µM | ACHN > 100 µM | MDA-MB-231 > 100 µM | SF-268 > 100 µM | NCI-H522 > 100 µM | UACC-62 > 100 µM | SF-295 > 100 µM | COLO 205 > 100 µM | PC-3 > 100 µM | IGROV-1 > 100 µM | SK-OV-3 > 100 µM | CCRF-CEM > 100 µM | SK-MEL-2 > 100 µM | A498 > 100 µM
